This test deals with AK4 lymphoid leukemia ip, C3AKF1 mice, survival. Nature of the test: NCI In Vivo Anticancer Drug Screen. Data for tumor model AK4 Lymphoid Leukemia (intraperitoneal) in C3AKF1 (CHKRF1) mice. The conditions noted are these: endpoint: median survival time, higher = longer survival. How it is done: The antitumor activity of compounds was measured in mice bearing transplantable tumors. Survival or tumor size were measured and the results are expressed as the measurement made in the treated group (T) divided by the measurement made in the vehicle treated control group (C). The tumor model used in this assay is AK4 Lymphoid Leukemia (intraperitoneal) in C3AKF1 (CHKRF1) mice

[1] abbreviates: dose: 200.0 mg/kg/injection, schedule: Q01DX010 (ip), vehicle: saline.
Setting [2] is: dose: 15.0 mg/kg/injection, schedule: Q01DX010 (ip), vehicle: saline.
Setting [3] is: dose: 30.0 mg/kg/injection, schedule: Q01DX010 (ip), vehicle: saline.
Setting [4] is: dose: 60.0 mg/kg/injection, schedule: Q01DX010 (ip), vehicle: saline.
Where [5] appears, read: dose: 0.5 mg/kg/injection, schedule: Q01DX010 (ip), vehicle: saline.
[6] abbreviates: dose: 1.0 mg/kg/injection, schedule: Q01DX010 (ip), vehicle: saline.
Setting [7] is: dose: 2.5 mg/kg/injection, schedule: Q01DX010 (ip), vehicle: saline.
Setting [8] is: dose: 5.0 mg/kg/injection, schedule: Q01DX010 (ip), vehicle: saline.
[9] abbreviates: dose: 10.0 mg/kg/injection, schedule: Q01DX010 (ip), vehicle: saline.
Where [10] appears, read: dose: 20.0 mg/kg/injection, schedule: Q01DX010 (ip), vehicle: saline.
[11] abbreviates: dose: 2.0 mg/kg/injection, schedule: Q01DX010 (ip), vehicle: saline.
The mark [12] stands for this setting: dose: 4.0 mg/kg/injection, schedule: Q01DX010 (ip), vehicle: saline.
[13] abbreviates: dose: 8.0 mg/kg/injection, schedule: Q01DX010 (ip), vehicle: saline.
[14] abbreviates: dose: 125.0 mg/kg/injection, schedule: Q01DX010 (ip), vehicle: saline.
[15] abbreviates: dose: 250.0 mg/kg/injection, schedule: Q01DX010 (ip), vehicle: saline.
Where [16] appears, read: dose: 500.0 mg/kg/injection, schedule: Q01DX010 (ip), vehicle: saline.

“And” between values parts separate entries of the source, which are not always exact repeats. Identical values can stand only once. Toxic doses and inconclusive results are not listed.

As to `CN(C)CC(=O)c1ccc(O)c(O)c1`, the T/C reads like this: under setting [1], 112 % of control; (dose: 300.0 mg/kg/injection, schedule: Q01DX010 (ip), vehicle: saline) 100 % of control; (dose: 450.0 mg/kg/injection, schedule: Q01DX010 (ip), vehicle: saline) 112 % of control; (dose: 675.0 mg/kg/injection, schedule: Q01DX010 (ip), vehicle: saline) 118 % of control.

`C[C@]12C=CC(=O)C=C1CC[C@@H]1[C@@H]2[C@@H](O)C[C@@]2(C)[C@H]1CC[C@]2(O)C(=O)CO`: the T/C is, setting by setting: (dose: 12.5 mg/kg/injection, schedule: Q01DX010 (sc), vehicle: steriod suspending solution) 90 % of control and 110 % of control; (dose: 25.0 mg/kg/injection, schedule: Q01DX010 (sc), vehicle: steriod suspending solution) 95 % of control; (dose: 50.0 mg/kg/injection, schedule: Q01DX010 (sc), vehicle: steriod suspending solution) 100 % of control and 105 % of control; (dose: 100.0 mg/kg/injection, schedule: Q01DX010 (sc), vehicle: steriod suspending solution) 90 % of control.

Turning to `CS(=O)(=O)OCCCl`, the T/C was 100 % of control (dose: 18.8 mg/kg/injection, schedule: Q01DX010 (ip), vehicle: saline); 100 % of control (dose: 37.5 mg/kg/injection, schedule: Q01DX010 (ip), vehicle: saline); 100 % of control (dose: 75.0 mg/kg/injection, schedule: Q01DX010 (ip), vehicle: saline).

In the case of `Clc1ncnc2nc[nH]c12`, the T/C is, setting by setting: (dose: 7.5 mg/kg/injection, schedule: Q01DX010 (ip), vehicle: saline) 100 % of control and 87 % of control; under setting [2], 100 % of control and 114 % of control; under setting [3], 100 % of control and 87 % of control; under setting [4], 87 % of control and 100 % of control.

For `C1CN1c1nc(N2CC2)nc(N2CC2)n1`, the T/C is, setting by setting: (dose: 0.25 mg/kg/injection, schedule: Q01DX010 (ip), vehicle: saline) 116 % of control; under setting [5], 150 % of control; under setting [6], 111 % of control.

In the case of `CC[n+]1c(-c2ccccc2)c2cc(N)ccc2c2ccc(N)cc21`, the T/C runs as follows: (dose: 1.25 mg/kg/injection, schedule: Q01DX010 (ip), vehicle: saline) 100 % of control; under setting [7], 100 % of control; under setting [8], 100 % of control; under setting [9], 100 % of control and 112 % of control; under setting [10], 112 % of control.

Regarding `S=P(N1CCOCC1)(N1CC1)N1CC1`, the T/C under setting [7] was 94 % of control, the T/C under setting [8] was 105 % of control, the T/C under setting [9] is 100 % of control and the T/C under setting [10] was 94 % of control.

For the molecule `S=c1nc[nH]c2nc[nH]c12`, the T/C runs as follows: (dose: 5.0 mg/kg/injection, schedule: Q01DX010 (ip), vehicle: alkali diluted with saline) 100 % of control; (dose: 5.0 mg/kg/injection, schedule: Q01DX Z (ip), vehicle: saline) 93 % of control; (dose: 10.0 mg/kg/injection, schedule: Q01DX010 (ip), vehicle: alkali diluted with saline) 95 % of control and 118 % of control; (dose: 10.0 mg/kg/injection, schedule: Q01DX Z (ip), vehicle: saline) 93 % of control and 96 % of control; (dose: 20.0 mg/kg/injection, schedule: Q01DX010 (ip), vehicle: alkali diluted with saline) 100 % of control and 112 % of control; (dose: 20.0 mg/kg/injection, schedule: Q01DX Z (ip), vehicle: saline) 90 % of control and 106 % of control. Further, the T/C reads like this: (dose: 40.0 mg/kg/injection, schedule: Q01DX010 (ip), vehicle: alkali diluted with saline) 93 % of control and 110 % of control; (dose: 40.0 mg/kg/injection, schedule: Q01DX Z (ip), vehicle: saline) 93 % of control and 96 % of control; (dose: 80.0 mg/kg/injection, schedule: Q01DX010 (ip), vehicle: alkali diluted with saline) 100 % of control; (dose: 80.0 mg/kg/injection, schedule: Q01DX Z (ip), vehicle: saline) 93 % of control and 96 % of control.

As for `CC(CCC(C)OS(C)(=O)=O)OS(C)(=O)=O` (stereo unspecified), the T/C was 88 % of control under setting [11], 88 % of control under setting [12] and 94 % of control under setting [13].

Regarding `c1ccc(CCSc2ncnc3nc[nH]c23)cc1`, the T/C was 100 % of control (dose: 62.5 mg/kg/injection, schedule: Q01DX010 (ip), vehicle: saline); 100 % of control under setting [14]; 100 % of control under setting [15]; 100 % of control under setting [16].

With `C[N+](C)(C)c1ncnc2nc[nH]c12`, the T/C was 100 % of control under setting [2]; 116 % of control under setting [3]; 111 % of control under setting [4]; 88 % of control (dose: 120.0 mg/kg/injection, schedule: Q01DX010 (ip), vehicle: saline).

Consider `CN1CC[C@]23c4c5ccc(O)c4O[C@H]2C(=O)CC[C@H]3[C@H]1C5`, for which the T/C is 94 % of control under setting [5]; 105 % of control under setting [6]; 94 % of control under setting [11]; 88 % of control and 94 % of control under setting [12]; 88 % of control under setting [13].

Turning to `[I][Hg][CH2]C1COC([CH2][Hg][I])CO1` (stereo unspecified), the T/C (dose: 0.78 mg/kg/injection, schedule: Q01DX010 (ip), vehicle: saline) was 106 % of control; the T/C (dose: 1.56 mg/kg/injection, schedule: Q01DX010 (ip), vehicle: saline) is 100 % of control; the T/C (dose: 3.13 mg/kg/injection, schedule: Q01DX010 (ip), vehicle: saline) is 100 % of control; the T/C (dose: 6.25 mg/kg/injection, schedule: Q01DX010 (ip), vehicle: saline) was 100 % of control; the T/C (dose: 12.5 mg/kg/injection, schedule: Q01DX010 (ip), vehicle: saline) was 88 % of control.

As to `O=c1[nH]cc(F)c(=O)[nH]1`, the T/C is, setting by setting: under setting [10], 162 % of control; (dose: 40.0 mg/kg/injection, schedule: Q01DX010 (ip), vehicle: saline) 112 % of control; (dose: 80.0 mg/kg/injection, schedule: Q01DX010 (ip), vehicle: saline) 93 % of control.

Turning to `O=C(Nc1ccc(C2=NCCN2)cc1)c1ccc(C(=O)Nc2ccc(C3=NCCN3)cc2)c([N+](=O)[O-])c1`, the T/C is 150 % of control (dose: 6.0 mg/kg/injection, schedule: Q01DX010 (ip), vehicle: saline); 155 % of control and 210 % of control (dose: 12.0 mg/kg/injection, schedule: Q01DX010 (ip), vehicle: saline); 100 % of control and 240 % of control (dose: 18.0 mg/kg/injection, schedule: Q01DX010 (ip), vehicle: saline).

For `Cc1n[nH]c(=O)[nH]c1=O`, the T/C was 87 % of control under setting [14]; 100 % of control under setting [15]; 87 % of control under setting [16]; 87 % of control (dose: 1000.0 mg/kg/injection, schedule: Q01DX010 (ip), vehicle: saline).

For the molecule `CSc1ncnc2nc[nH]c12`, the T/C was 100 % of control (dose: 25.0 mg/kg/injection, schedule: Q01DX010 (ip), vehicle: saline); 100 % of control (dose: 50.0 mg/kg/injection, schedule: Q01DX010 (ip), vehicle: saline); 100 % of control (dose: 100.0 mg/kg/injection, schedule: Q01DX010 (ip), vehicle: saline); 100 % of control under setting [1].

Consider `CN[C@H]1CCc2cc(OC)c(OC)c(OC)c2-c2ccc(OC)c(=O)cc21`, for which the T/C (dose: 0.63 mg/kg/injection, schedule: Q01DX010 (ip), vehicle: other) is 95 % of control and 100 % of control; the T/C (dose: 1.25 mg/kg/injection, schedule: Q01DX010 (ip), vehicle: other) is 95 % of control and 100 % of control; the T/C (dose: 2.5 mg/kg/injection, schedule: Q01DX010 (ip), vehicle: other) was 90 % of control and 100 % of control; the T/C (dose: 5.0 mg/kg/injection, schedule: Q01DX010 (ip), vehicle: other) is 100 % of control and 104 % of control.
